Consider 8 compounds from patent publication US20240018123A1, “COMPOUND FOR INHIBITING OR DISINTEGRATING ANDROGEN RECEPTOR, AND PHARMACEUTICAL USE THEREOF” (KOREA RESEARCH INSTITUTE OF CHEMICAL TECHNOLOGY, priority 2020, published 2024).

One series has as its target T1, Androgen receptor (AR) (Homo sapiens, UniProt P10275, T878A).
T1 construct: 5.5×10^5 LNCap cells were injected into each well of a 6-well plate; endogenous in cells; host or cells: LNCaP
T1 sequence (P10275 1-920 T878A): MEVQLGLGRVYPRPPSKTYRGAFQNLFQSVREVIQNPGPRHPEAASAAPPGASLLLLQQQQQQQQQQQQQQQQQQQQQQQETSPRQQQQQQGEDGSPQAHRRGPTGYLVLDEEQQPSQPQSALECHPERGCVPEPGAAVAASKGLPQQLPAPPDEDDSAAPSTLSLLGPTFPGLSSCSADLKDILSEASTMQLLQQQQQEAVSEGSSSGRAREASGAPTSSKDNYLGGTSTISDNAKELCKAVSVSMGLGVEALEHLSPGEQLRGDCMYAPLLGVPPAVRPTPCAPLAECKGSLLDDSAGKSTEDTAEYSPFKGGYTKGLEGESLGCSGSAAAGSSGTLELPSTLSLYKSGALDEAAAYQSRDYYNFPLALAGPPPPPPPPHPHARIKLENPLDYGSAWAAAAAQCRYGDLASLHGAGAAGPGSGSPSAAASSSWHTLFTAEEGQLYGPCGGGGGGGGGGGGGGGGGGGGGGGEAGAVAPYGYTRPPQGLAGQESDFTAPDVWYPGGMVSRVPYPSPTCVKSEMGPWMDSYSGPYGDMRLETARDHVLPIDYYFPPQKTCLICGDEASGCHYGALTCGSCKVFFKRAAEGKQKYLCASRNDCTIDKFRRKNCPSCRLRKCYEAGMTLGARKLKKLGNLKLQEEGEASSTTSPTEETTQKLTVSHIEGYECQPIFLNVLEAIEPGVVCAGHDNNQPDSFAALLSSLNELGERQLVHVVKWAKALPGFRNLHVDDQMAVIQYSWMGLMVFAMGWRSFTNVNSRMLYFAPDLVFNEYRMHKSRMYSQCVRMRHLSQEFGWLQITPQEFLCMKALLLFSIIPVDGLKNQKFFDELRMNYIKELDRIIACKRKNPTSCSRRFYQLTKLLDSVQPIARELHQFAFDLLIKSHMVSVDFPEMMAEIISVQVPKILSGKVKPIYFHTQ
The series can be described thus: Assessment of AR proteolytic activity (Western blotting of LNCap cell lysates). The conditions noted are these: 24 hours of treatment, Western blotting quantified with Image J. The format is cell-based. Summed up:
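LNCap cells seeded at 5.5×10^5 per well and treated with compound for 24 hours. Lysates prepared in RIPA buffer (pH 7.5, with protease inhibitors). AR protein levels assessed by Western blot with densitometric quantification.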

A further series deals with 22RV1 cells. The experiment in a line: Cytotoxicity assessment (Cell-titer-glo cell viability), 22RV1. It counts as cell-based.
Series [1] deals with LNCaP cells.
In series [2] the test system is LNCaP cells. The experiment in a line: Cytotoxicity assessment (Cell-titer-glo cell viability), LNCaP. The conditions noted are these: read-out: LNCAP (CC50); LNCaP cells, 6 days of treatment, Cell-titer-glo, vs DMSO.

Like-named read-outs stand apart in the source and are kept apart here.

Protocol for 22RV1 cells: (§1) In order to evaluate the androgen receptor (AR) cytotoxicity of the compounds according to the present invention, the following experiment was conducted. Specifically, 1.5×10^3 (LNCaP) or 4×10^3 (VCaP, 22RV1), respectively, of LNCaP, VCaP, and 22RV1 cells were injected into each well of a 96-well plate. The next day, each well was treated with the compound at a final concentration of 3 nM, 10 nM, 30 nM, 100 nM, 300 nM, 1 μM, 3 μM, and 10 μM. […] After 6 days of treatment, Cell-titer-glo (promega) was treated and reacted for 10 minutes, and cell viability was measured with a multimode plate reader (PerkinElmer, Inc.), and the change was quantified compared to when DMSO was treated.
Protocol for VCaP cells: as §1

In general, CC50 refers to the concentration at which the toxic effect on the cells reaches its halfway point. Take `CC1(C)[C@H](NC(=O)c2ccc(OCCOCCOCCOCCOCCOCCCNc3cccc4nnn(C5CCC(=O)NC5=O)c(=O)c34)cc2)C(C)(C)[C@H]1Oc1ccc(C#N)c(Cl)c1` (single isomer, unassigned) [Example 4, N-((1r,3r)-3-(3-chloro-4-cyanophenoxy)-2,2,4,4-tetramethylcyclobutyl)-4-((18-((3-(2,6-dioxopiperidin-3-yl)-4-oxo-3,4-dihydrobenzo[d][1,2,3]triazin-5-yl)amino)-3,6,9,12,15-pentaoxaoctadecyl)oxy)benzamide]: at Androgen receptor (AR), the “Degradation (1 μM treated in LNCaP, % AR remaining)” value is given as 58%. For the same compound, the CC50 in the series on 22RV1 cells is 4460 nM; with LNCaP cells [1], 5320 nM.
As to `CC1(C)C(NC(=O)c2ccc(OCCOCCOCCOCCOCCOCCOCCCCNc3cccc4nnn(C5CCC(=O)NC5=O)c(=O)c34)cc2)C(C)(C)C1Oc1ccc(C#N)c(Cl)c1` (stereo not drawn) [Example 6, N-((1r,3r)-3-(3-chloro-4-cyanophenoxy)-2,2,4,4-tetramethylcyclobutyl)-4-((22-((3-(2,6-dioxopiperidin-3-yl)-4-oxo-3,4-dihydrobenzo[d][1,2,3]triazin-5-yl)amino)-3,6,9,12,15,18-hexaoxadocosyl)oxy)benzamide], the “Degradation (1 μM treated in LNCaP, % AR remaining)” value on Androgen receptor (AR) is recorded as 66%. Further, the CC50 in the series with 22RV1 cells (22RV1 cells, 6 days of treatment, Cell-titer-glo, vs DMSO, read-out: 22RV1 (CC50)) stood at 7100 nM; in the series on LNCaP cells [2] it was 5930 nM.
Take `CC1(C)[C@H](NC(=O)c2ccc(-c3cnn(C4CCN(CC5CCN(C(=O)C6CN(c7ccc8nnn(C9CCC(=O)NC9=O)c(=O)c8c7)C6)CC5)CC4)c3)cc2)C(C)(C)[C@H]1Oc1ccc(C#N)c(Cl)c1` (stereo partly drawn) [Example 83, N-((1r,3r)-3-(3-chloro-4-cyanophenoxy)-2,2,4,4-tetramethylcyclobutyl)-4-(1-(1-((1-(1-(3-(2,6-dioxopiperidin-3-yl)-4-oxo-3,4-dihydrobenzo[d][1,2,3]triazin-6-yl)azetidine-3-carbonyl)piperidin-4-yl)methyl)piperidin-4-yl)-1H-pyrazol-4-yl)benzamide]: the “Degradation (1 μM treated in LNCaP, % AR remaining)” value at Androgen receptor (AR) amounted to 43%. The CC50 with LNCaP cells [1] stood at 13.7 nM; with VCaP cells, 6 nM.
With `CC1(C)[C@H](NC(=O)c2ccc(N3CCN(CC4CCN(C(=O)C5CN(c6ccc7nnn(C8CCC(=O)NC8=O)c(=O)c7c6)C5)CC4)CC3)cc2)C(C)(C)[C@H]1Oc1ccc(C#N)c(Cl)c1` (stereo partly drawn) [Example 11, N-((1r,3r)-3-(3-chloro-4-cyanophenoxy)-2,2,4,4-tetramethylcyclobutyl)-4-(4-((1-(1-(3-(2,6-dioxopiperidin-3-yl)-4-oxo-3,4-dihydrobenzo[d][1,2,3]triazin-6-yl)azetidine-3-carbonyl)piperidin-4-yl)methyl)piperazin-1-yl)benzamide], at Androgen receptor (AR), the “Degradation (1 μM treated in LNCaP, % AR remaining)” value was 7%. For the same compound, the figures for the CC50 in the series on LNCaP cells [1] and in the series on VCaP cells were 91.4 nM and 74.7 nM, respectively.
As to `CC1(C)[C@H](NC(=O)c2ccc(N3CCN(CC4(F)CCN(C(=O)C5CN(c6ccc7nnn(C8CCC(=O)NC8=O)c(=O)c7c6)C5)CC4)CC3)cc2)C(C)(C)[C@H]1Oc1ccc(C#N)c(Cl)c1` (stereo partly drawn) [Example 63, N-((1r,3r)-3-(3-chloro-4-cyanophenoxy)-2,2,4,4-tetramethylcyclobutyl)-4-(4-((1-(1-(3-(2,6-dioxopiperidin-3-yl)-4-oxo-3,4-dihydrobenzo[d][1,2,3]triazin-6-yl)azetidine-3-carbonyl)-4-fluoropiperidin-4-yl)methyl)piperazin-1-yl)benzamide], the “Degradation (1 μM treated in LNCaP, % AR remaining)” value at Androgen receptor (AR) is recorded as 6%. Further, the CC50 worked out at 53.2 nM in the series on LNCaP cells [1] and 14.8 nM with VCaP cells.
The like results for `CC1(C)[C@H](NC(=O)c2ccc(N3CCN(CCC4CCN(C(=O)COc5ccc6nnn(C7CCC(=O)NC7=O)c(=O)c6c5)CC4)CC3)cc2)C(C)(C)[C@H]1Oc1ccc(C#N)c(Cl)c1` (stereo partly drawn) [Example 24, N-((1r,3r)-3-(3-chloro-4-cyanophenoxy)-2,2,4,4-tetramethylcyclobutyl)-4-(4-(2-(1-(2-((3-(2,6-dioxopiperidin-3-yl)-4-oxo-3,4-dihydrobenzo[d][1,2,3]triazin-6-yl)oxy)acetyl)piperidin-4-yl)ethyl)piperazin-1-yl)benzamide] were, in that order, 13%, 1480 nM and 107 nM.
As for `CC1(C)[C@H](NC(=O)c2ccc(C#CC3CCN(CC4CCN(c5ccc6nnn(C7CCC(=O)NC7=O)c(=O)c6c5)CC4)CC3)cc2)C(C)(C)[C@H]1Oc1ccc(C#N)c(Cl)c1` (stereo partly drawn) [Example 99, N-((1r,3r)-3-(3-chloro-4-cyanophenoxy)-2,2,4,4-tetramethylcyclobutyl)-4-((1-((1-(3-(2,6-dioxopiperidin-3-yl)-4-oxo-3,4-dihydrobenzo[d][1,2,3]triazin-6-yl)piperidin-4-yl)methyl)piperidin-4-yl)ethynyl)benzamide], at Androgen receptor (AR), the “Degradation (1 μM treated in LNCaP, % AR remaining)” value worked out at 20%. Moreover, the CC50 with LNCaP cells [1] was found to be 31.5 nM; in the series on VCaP cells it was 2 nM.
As to `CC1(C)[C@H](NC(=O)c2ccc(OCCOCCOCCOCCOCCOCCCNc3cccc4nnn(C5CCC(=O)NC5=O)c(=O)c34)cc2)C(C)(C)[C@H]1Oc1ccc(C#N)c(Cl)c1` (single isomer, unassigned) [Example 3, N-((1r,3r)-3-(3-chloro-4-cyanophenoxy)-2,2,4,4-tetramethylcyclobutyl)-4-((18-((3-(2,6-dioxopiperidin-3-yl)-4-oxo-3,4-dihydrobenzo[d][1,2,3]triazin-5-yl)amino)-3,6,9,12,15-pentaoxaoctadecyl)oxy)benzamide], on Androgen receptor (AR), the “Degradation (1 μM treated in LNCaP, % AR remaining)” value is on record as 47%. For the same compound, the CC50 in the series on 22RV1 cells was found to be 430 nM; in the series on LNCaP cells [1] it was 2980 nM.
